B1: IL-4: interleukin, cytokine (protein, UniProt P05112 25-153, looked up)
Interleukin-4: HKCDITLQEIIKTLNSLTEQKTLCTELTVTDIFAASKNTTEKETFCRAATVLRQFYSHHEKDTRCLGATAQQFHRHKQLIRFLKRLDRNLWGLAGLNSCPVKEANQSTLENFLERLKTIMREKYSKCSS

Columns and labels:
[1] = tested on: IEL adhesion to 16E6.A5 epithelial cells; assay: IEL adhesion to 16E6.A5 epithelial cell monolayers; type: cell-based, human; details: epithelial cell monolayers pretreated with cytokine
Procedure: Monolayers of adherent cells were grown in flat bottomed 96-well Linbro tissue culture plates. 10^4 adherent cells in 100 μl complete media were added per well and allowed to grow for two to three days until they reached confluence. Just prior to the addition of IEL or transfected COS 7 cells, the adherent cell monolayers were washed with assay media. To label IEL and COS-7 cells, 25 μg of 2′,7′-bis-(2-carboxyethyl)-5 (and -6)-carboxyfluorescein (BCECF-AM, Molecular Probes, Inc., Eugene, Oreg.) was diluted in 5 μl DMSO and added to a suspension of 5×10^6/ml IEL or COS-7 cells in complete media. The cells were incubated at 37° C. for 25 minutes then washed twice in assay media (PBS containing 1 mM CaCl2, 2 mM MgCl2 and 10 mM HEPES). After washing, 50,000 labeled IEL or COS-7 cells in 100 μl of assay media were added to the adherent cell monolayers. IEL or COS-7 cells were allowed to settle onto adherent cell monolayers for 25 or 40 min. at 37° C. Unbound cells were removed by flicking media from the plate. Bound cells were detected using a Fluorescence plate reader (IDEXX Co., Portland, Me.). If antibody blocking was performed, the IEL, COS-7 cells, epithelial cell monolayers, or L-M monolayers were pre-incubated with a 1:250 dilution of ascites fluid or 10 μg/ml of purified mAb for five minutes at 37° C. prior to encounter with the second cell type. At least four replicates were performed. The % cells bound was calculated by reading the fluorescence units obtained after unbound cells were washed off, dividing this number by the input fluorescence units and multiplying by 100. […] In adhesion assays where divalent cations were varied, the IEL were washed with Ca^++ and Mg^++ free Hank's balanced salt solution (HBSS) and pre-equilibrated with HBSS containing the indicated concentrations of MgCl2, MnCl2, or CaCl2 for 10 min. at 37° C. prior to incubation with 16E6.A5 monolayers which had been washed with Ca^++ and Mg^++ free HBSS. Disruption of T84 cell intercellular tight junctions.
The 16E6.A5 cell line was derived by immortalization of the 76N normal epithelial cell line through transfection of the E6 and E7 genes of human papilloma virus (by V. Band, Tufts University, publically available). Monolayers of these adherent cells are grown in flat-bottomed 96-well Linbro tissue culture plates. […] Bound cells are detected using a Fluorescence plate reader (IDEXX Co., Portland Me.). […] The % cells bound is calculated by reading the fluorescence units obtained after unbound cells are washed off and dividing this number by the input fluorescence units obtained after adding 50,000 cells/well and multiplying by 100. Serial dilutions of labeled cells have shown that as few as 1000 cells can be detected in the linear range.

[2] = tested on: homotypic E-cadherin adhesion; details: soluble recombinant protein produced in insect cells; cited from earlier work
[3] = tested on: integrin expression on IEL lines; assay: FACS analysis of integrin expression on cultured IEL; type: cell-based, human; details: culture of IEL lines with TGF-β1
Text: Human intestinal tissue was obtained from fatal accident organ donors or from adult patients undergoing resection for colorectal carcinoma, from sections at least 10 cm away from macroscopically detectable lesions. IEL were isolated as described previously (Davies M. D. J. et al. (1981) Gut 22:481; Parker C. et al. (1992) Proc. Natl. Acad. Sci. USA 89:1924). once isolated, the IEL were stimulated with phytohemagglvtinin-P (PHA:Difco) and irradiated feeder cells (80% peripheral blood mononuclear cells and 20% JY lymphoblastoid cells) in Yssel's medium (Yssel H. et al. (1984) J. Immunol. Methods 72:219) containing 2 nM recombinant interleukin (IL)-2 (gift of Ajinomoto, Kawasaki, Japan), 4% (vol/vol) conditioned medium (Brenner M. et al. (1987) J. Immunol. 138:1502), 4% (vol/vol) fetal calf serum (Hyclone), and 50 AM 2-mercaptoethanol at 10% Co2. […] Two different anti-CD8 mAb (OKT8, CD8α; and T8/2T85H7, CD8β) were used to discriminate between expression of the CD8 αα homodimer and the CD8 αβ heterodimer. In agreement with previously reported data (Jarry A. et al. (1990) Eur. J. of Immunol. 20(5):1097), 10% of the CD8^+ cells expressed the homodimer. Thus, the lines were thought to be highly purified IEL preparations. Long term culture of the 032891 and 390I IEL lines was maintained by intermittent restimulation with PHA and irradiated feeder cells. In single color FACS analysis, the long term 032891 cell line was 99% CD3^+, 99% T cell receptor αβ positive, and 99% CD8 αβ positive. The 390I cell line was 99% CD3^+, 99% T cell receptor αβ positive, and 99% CD8 αβ positive and 6% CD4 positive. […]
FACS analysis was performed by suspending 2.5×10^5 cells in 100 μl of staining buffer (PBS, 1% BSA, 4% human serum, 0.02% NaN3) containing saturating concentrations of mAbs and incubating for 1 hr. at 4° C. […] Biotin-conjugated mAbs were used to stain the second molecule which was visualized by PE-conjugated streptavidin (Becton Dickinson & Co., Mountain View, Calif. Viable cells were analyzed using the FACScan or FACSort flow cytometer (Becton Dickinson & Co.).

Molecule	effect on IEL-to-epithelial cell adhesion [1]	other results
IFN-γ: interferon, cytokine	increased adhesion	–
Recombinant human E-cadherin: recombinant human E-cadherin containing nearly the entire extracellular domain, produced in insect cells (Herrenknecht and Kemler)	–	blocking of homophilic E-cadherin mediated cell-cell binding [2]: failed to block
TNF-α	no effect	–
TGF-β1: transforming growth factor-beta 1	–	expression of α^Eβ7 on IEL lines [3]: dramatically up-regulated; expression of α^Lβ2 on IEL lines [3]: down regulated; expression of β1 and its associated α chains on IEL lines [3]: little effect
IL-1B: interleukin, cytokine	no effect	–
B1	no effect	–

From patent US6406870B2, “Methods and compositions for modulating heterotypic E-cadherin interactions with T lymphocytes” (The Brigham and Women's Hospital, Inc., priority 1994, dated 2002)
